The values that follow come from PubChem BioAssay AID1228 (The Scripps Research Institute Molecular Screening Center, 2008).

Structures are written as SMILES. Activity calls are given as the source filed them.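 How the source made its calls: active means EC50 at or below 10 µM; inactive means EC50 above 10 µM.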

In this experiment the test system is CHO NFAT-BLA reporter, FRET beta-lactamase activation counterscreen. Description: nonspecific beta-lactamase reporter activation – CHO NFAT-bla cells, FRET readout, counter-screen for GALR2 agonist project, dose response (AID 1228). In general terms: A counterscreen serves to expose hits that act by an unwanted route or on another target.
The term EC50 denotes the concentration that produces a half-maximal response. Consider `CCCOc1ccc(C(=O)C(CCC(CNCC)C(=O)c2ccc(OCCC)cc2)CNCC)cc1` (stereo unspecified), for which the EC50 is > 55.7 µM (inactive).
In the case of `Cc1ccc2nsnc2c1NC(=O)c1ccc(-c2cc(Cl)ccc2Cl)o1`, the EC50 is > 55.7 µM (inactive).
With `Cc1cccc2sc(NNC(=O)c3ccc(S(=O)(=O)N4CCCC(C)C4)cc3)nc12` (stereo unspecified), the EC50 was > 55.7 µM (inactive).
With `Cc1cc(C)c2nc(NNC(=O)c3ccc(S(=O)(=O)N4CCCC(C)C4)cc3)sc2c1` (stereo unspecified), the EC50 was > 55.7 µM (inactive).
As to `C=CCNC(=O)/C(C#N)=C/c1cn(-c2ccccc2)nc1-c1cccs1`, the EC50 was > 55.7 µM (inactive).
Turning to `CCOc1ccc(Br)cc1C(=O)Nc1ccc(C(=O)NCC(C)C)cc1`, the EC50 is > 55.7 µM (inactive).
As for `COc1cc2c3cc1Oc1cc(ccc1O)C[C@@H]1c4c(cc(OC)c(O)c4Oc4ccc(cc4)C[C@H]3N(C)CC2)CCN1C`, the figure is > 55.7 µM (inactive); as for `Cc1cc(C)c2nc(NNC(=O)c3ccc(S(=O)(=O)N4CC(C)CC(C)C4)cc3)sc2c1` (stereo unspecified), > 55.7 µM (inactive); as for `Cc1cccc2sc(NNC(=O)c3ccc(S(=O)(=O)N4CC(C)CC(C)C4)cc3)nc12` (stereo unspecified), > 55.7 µM (inactive).
Take `Cc1c2ccncc2c(C)c2c1[nH]c1ccccc12`: the EC50 is > 55.7 µM (inactive).
Consider `CC1=C/C(=N\OS(=O)(=O)c2ccccc2)C(C(C)C)=CC1=O`, for which the EC50 is > 55.7 µM (inactive).
